One experiment deals with Beta-secretase 1 (Homo sapiens, UniProt P56817). Briefly: Inhibition of human BACE1 expressed in HEK293 cells. The class given is cell-based.
The target in another experiment is T1, Beta-secretase 2 (Homo sapiens, UniProt Q9Y5Z0).
T1 sequence (Q9Y5Z0 whole entry): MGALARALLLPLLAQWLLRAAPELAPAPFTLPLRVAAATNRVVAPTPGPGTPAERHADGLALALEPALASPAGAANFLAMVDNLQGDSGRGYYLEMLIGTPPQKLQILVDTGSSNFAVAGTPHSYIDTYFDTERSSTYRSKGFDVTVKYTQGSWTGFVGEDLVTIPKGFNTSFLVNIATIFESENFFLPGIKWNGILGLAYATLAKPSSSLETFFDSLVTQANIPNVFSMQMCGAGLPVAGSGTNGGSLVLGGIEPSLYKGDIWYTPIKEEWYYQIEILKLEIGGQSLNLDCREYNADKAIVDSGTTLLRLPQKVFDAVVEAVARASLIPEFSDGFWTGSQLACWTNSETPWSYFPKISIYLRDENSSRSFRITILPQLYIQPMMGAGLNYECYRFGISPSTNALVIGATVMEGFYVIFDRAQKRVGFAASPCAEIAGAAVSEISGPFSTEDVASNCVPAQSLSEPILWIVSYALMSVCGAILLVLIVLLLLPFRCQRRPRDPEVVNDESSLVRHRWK
Briefly: Inhibition of BACE2 expressed in HEK293 cells. The class given is cell-based.

The next experiment concerns the target Cathepsin D (Homo sapiens, UniProt P07339). As to the kind of experiment: Inhibition of cathepsin D expressed in HEK293 cells. The class given is cell-based.
Experiment [1] in a line: Inhibition of porcine pepsin. Also noted: species or system Sus scrofa.

From ChEMBL document CHEMBL1147996, “Synthesis and biological evaluation of phosphino dipeptide isostere inhibitor of human beta-secretase (BACE1)” (Bioorg Med Chem, 2007) come the findings set out here.

pIC50: −log10 of the molar value. *1 amine or outer side, *2 acyl side, *3 side chain or, on linkers, in order; H or OH if unused. Where a SMILES comes first, the peptide text is derived from it. [ ]: non-standard residue; d: D form. X3 = CC(C)C[C@@H](N[*:1])P(=O)(O)CC(C)C(=O)[*:2]; X1 = CC(C)C[C@H](N[*:1])P(=O)(O)CC(C)C(=O)[*:2]; X2 = CC(C)CC(N[*:1])P(=O)(O)CC(C)C(=O)[*:2]

Chain of Beta-secretase 1 (P56817 whole entry): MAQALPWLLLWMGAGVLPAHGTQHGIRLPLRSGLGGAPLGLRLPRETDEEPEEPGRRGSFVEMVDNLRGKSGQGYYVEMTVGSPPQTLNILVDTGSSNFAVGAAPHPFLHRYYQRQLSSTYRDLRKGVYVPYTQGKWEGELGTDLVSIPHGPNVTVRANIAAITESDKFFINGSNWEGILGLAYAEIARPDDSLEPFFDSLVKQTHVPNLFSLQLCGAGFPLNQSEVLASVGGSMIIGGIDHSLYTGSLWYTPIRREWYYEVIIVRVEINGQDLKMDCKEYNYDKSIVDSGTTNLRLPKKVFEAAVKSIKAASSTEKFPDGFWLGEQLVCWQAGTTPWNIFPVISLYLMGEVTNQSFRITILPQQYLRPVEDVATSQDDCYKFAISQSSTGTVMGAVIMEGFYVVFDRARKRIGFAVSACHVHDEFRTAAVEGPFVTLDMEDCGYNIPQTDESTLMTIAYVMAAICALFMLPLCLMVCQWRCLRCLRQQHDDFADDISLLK
Chain of Cathepsin D (P07339 65-162 limits assumed): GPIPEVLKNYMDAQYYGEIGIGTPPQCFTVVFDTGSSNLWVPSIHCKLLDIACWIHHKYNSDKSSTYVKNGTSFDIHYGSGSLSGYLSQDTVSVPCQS
Chain of Cathepsin D (P07339 169-412 limits assumed): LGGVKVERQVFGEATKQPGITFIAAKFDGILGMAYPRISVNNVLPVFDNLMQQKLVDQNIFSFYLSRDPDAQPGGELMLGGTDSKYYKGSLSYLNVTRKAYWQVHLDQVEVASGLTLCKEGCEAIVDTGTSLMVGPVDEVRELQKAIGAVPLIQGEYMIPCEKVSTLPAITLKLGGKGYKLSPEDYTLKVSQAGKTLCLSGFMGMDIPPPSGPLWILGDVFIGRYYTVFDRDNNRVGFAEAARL

For `CC(C)C[C@H](NC(=O)[C@@H](N)CCC(=O)O)C(=O)N[C@@H](CC(=O)O)C(=O)N[C@H](CC(C)C)P(=O)(O)CC(C)C(=O)N[C@H](C(=O)N[C@@H](CCC(=O)O)C(=O)N[C@@H](Cc1ccccc1)C(=O)O)C(C)C` (stereo partly specified) (H-ELD[X3]VEF-OH), the pIC50 against Beta-secretase 1 was 5.69.
Regarding `CC(C)C[C@H](NC(=O)[C@@H](N)CCC(=O)O)C(=O)N[C@@H](CC(=O)O)C(=O)N[C@@H](CC(C)C)P(=O)(O)CC(C)C(=O)N[C@H](C(=O)N[C@@H](CCC(=O)O)C(=O)N[C@@H](Cc1ccccc1)C(=O)O)C(C)C` (stereo partly specified) (H-ELD[X1]VEF-OH), the pIC50 is 7.92 on Beta-secretase 1, 7.92 against Beta-secretase 2, 7.55 on Cathepsin D and 8.10 in experiment [1].
The compound `CC(C)CC(NC(=O)[C@H](CC(=O)O)NC(=O)[C@H](CC(C)C)NC(=O)[C@@H](N)CCC(=O)O)P(=O)(O)CC(C)C(=O)N[C@H](C(=O)N[C@@H](CCC(=O)O)C(=O)N[C@@H](Cc1ccccc1)C(=O)O)C(C)C` (stereo partly specified) (H-ELD[X2]VEF-OH) gave a pIC50 against Beta-secretase 1 of 6.17.
